Test results reported in patent US8044208B2 (Sanofi-Aventis, priority 2005, dated 2011).

Target: T1, TAFIa (Homo sapiens, UniProt Q96IY4)
T1 construct: purchased American Diagnostica 874TAFIA
T1 sequence (Q96IY4 115-423): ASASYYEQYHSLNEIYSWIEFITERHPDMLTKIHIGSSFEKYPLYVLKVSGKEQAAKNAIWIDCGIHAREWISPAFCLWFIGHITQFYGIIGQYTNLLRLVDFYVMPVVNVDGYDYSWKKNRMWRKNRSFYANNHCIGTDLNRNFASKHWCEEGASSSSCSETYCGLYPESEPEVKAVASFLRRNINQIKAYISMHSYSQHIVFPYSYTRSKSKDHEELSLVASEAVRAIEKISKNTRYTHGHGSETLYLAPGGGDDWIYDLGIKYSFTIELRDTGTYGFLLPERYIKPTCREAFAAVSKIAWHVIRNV
Experiment: TAFIa enzyme assay (Actichrome plasma TAFI activity kit)
Assay type: biochemical
Conditions: 15 min preincubation at room temperature, read at 420 nm, duplicate determination
Method: The prepared substances were tested for TAFIa inhibition using the Actichrome plasma TAFI activity kit from American Diagnostica (Pr. No. 874). This entailed adding 29 μl of assay buffer (20 mM Hepes, 150 mM NaCl, pH 7.4) and 10 μl of TAFIa (American Diagnostica Pr. No. 874TAFIA; […]) to 1 μl of 5 mM DMSO solution of the substance and incubating in a 96 half-well microtiter plate at room temperature for 15 minutes. The enzymic reaction was started by adding 10 μl of TAFIa developer (prediluted 1:2 with water). The time course of the reaction was followed at 420 nm in a microtiter plate reader (SpectraMax plus 384; Molecular Devices) for 15 minutes. The IC50 values were calculated from the averaged values (duplicate determination) of serial dilutions of the substance with the aid of the Software Grafit 4 (Erithacus Software, UK).

IC50 [nM]	Compound
745	CC(C)(C)c1ccc(-c2noc(Cn3cnc(C(Cc4ccc(N)nc4)C(=O)O)c3)n2)cc1 (centres unmarked) [Example 17, 3-(6-Aminopyridin-3-yl)-2-{1-[3-(4′-tert-butylphenyl)-[1,2,4]oxadiazol-5-ylmethyl]-1H-imidazol-4-yl}propionic acid]
258	Nc1ccc(CC(C(=O)O)c2cn(Cc3noc(-c4ccc(C(F)(F)F)cc4)n3)cn2)cn1 (centres unmarked) [Example 10, 3-(6-Aminopyridin-3-yl)-2-{1-[5-(4-trifluoromethylphenyl)-[1,2,4]oxadiazol-3-ylmethyl]-1H-imidazol-4-yl}propionic acid]
41	Nc1ccc(CC(C(=O)O)c2cn(Cc3nnc(-c4ccc(Cl)cc4)s3)cn2)cn1 (centres unmarked) [Example 8, 3-(6-Aminopyridin-3-yl)-2-{1-[5-(4-chlorophenyl)-[1,3,4]thiadiazol-2-ylmethyl]-1H-imidazol-4-yl}propionic acid]
223	COc1ccc(-c2nc(Cn3cnc(C(Cc4ccc(N)nc4)C(=O)O)c3)no2)cc1 (centres unmarked) [Example 15]
104	COc1ccc(-c2cc(Cn3cnc(C(Cc4ccc(N)nc4)C(=O)O)c3)no2)cc1 (centres unmarked) [Example 5, 3-(6-Aminopyridin-3-yl)-2-{1-[5-(4-methoxyphenyl)isoxazol-3-ylmethyl]-1H-imidazol-4-yl}propionic acid]
3	CCC(C)c1ccc(-c2cc(Cn3cnc(C(Cc4ccc(N)nc4)C(=O)O)c3)no2)cc1 (centres unmarked) [Example 46, 3-(6-Aminopyridin-3-yl)-2-{1-[5-(4-sec-butylphenyl)isoxazol-3-ylmethyl]-1H-imidazol-4-yl}propionic acid]
78	COc1ccc(-c2nnc(Cn3cnc(C(Cc4ccc(N)nc4)C(=O)O)c3)s2)cc1 (centres unmarked) [Example 22, 3-(6-Aminopyridin-3-yl)-2-{1-[5-(4-methoxyphenyl)-[1,3,4]thiadiazol-2-ylmethyl]-1H-imidazol-4-yl}propionic acid]

Further lines, the compound ahead of its results:

Compound	IC50 [nM]
Cc1cc(CC(C(=O)O)c2cn(Cc3nnc(C4CC4)s3)cn2)cnc1N (centres unmarked) [Example 61, 3-(6-Amino-5-methylpyridin-3-yl)-2-[1-(5-cyclopropyl-[1,3,4]thiadiazol-2-ylmethyl)-1H-imidazol-4-yl]propionic acid]	26
Cc1nc(-c2cc(Cn3cnc(C(Cc4ccc(N)nc4)C(=O)O)c3)no2)cs1 (centres unmarked) [Example 18, 3-(6-Aminopyridin-3-yl)-2-{1-[5-(2-methylthiazol-4-yl)isoxazol-3-ylmethyl]-1H-imidazol-4-yl}propionic acid]	326
Nc1ccc(CC(C(=O)O)c2cn(Cc3cnc(-c4ccc(Cl)s4)s3)cn2)cn1 (centres unmarked) [Example 3, 3-(6-Aminopyridin-3-yl)-2-{1-[2-(5-chlorothiophen-2-yl)thiazol-5-ylmethyl]-1H-imidazol-4-yl}propionic acid]	326
Nc1ccc(CC(C(=O)O)c2cn(Cc3cc(-c4ccc(Cl)s4)on3)cn2)cn1 (centres unmarked) [Example 1, 3-(6-Aminopyridin-3-yl)-2-{1-[5-(5-chlorothiophen-2-yl)isoxazol-3-ylmethyl]-1H-imidazol-4-yl}propionic acid]	41
CC(C)(C)c1nnc(Cn2cnc(C(Cc3ccc(N)nc3)C(=O)O)c2)s1 (centres unmarked) [Example 9, 3-(6-Aminopyridin-3-yl)-2-[1-(5-tert-butyl-[1,3,4]thiadiazol-2-ylmethyl)-1H-imidazol-4-yl]propionic acid]	169
Nc1ccc(CC(C(=O)O)c2cn(Cc3nnc(C4CC4)s3)cn2)cn1 (centres unmarked) [Example 12, 3-(6-Aminopyridin-3-yl)-2-[1-(5-cyclopropyl-[1,3,4]thiadiazol-2-ylmethyl)-1H-imidazol-4-yl]propionic acid]	30
Nc1ccc(C[C@H](C(=O)O)c2cn(Cc3cc(-c4ccc(Cl)s4)on3)cn2)cn1 [Example 58, (S)-3-(6-Aminopyridin-3-yl)-2-{1-[5-(5-chlorothiophen-2-yl)isoxazol-3-ylmethyl]-1H-imidazol-4-yl}propionic acid]	4
